Measured values as given in the NIST ThermoML archive (doi:10.1016/j.jct.2008.07.010).
Numbers after ± are expanded uncertainties.

Test: xn = mol fraction of the nth substance listed
Details: 101 kPa, Liquid; for viscosity: Capillary tube (Ostwald / Ubbelohde) method; for speed of sound: Sing-around technique in a fixed-path interferometer; for mass density: Vibrating tube method

CC(C)CCCC(C)CCCC(C)CCCCC(C)CCCC(C)CCCC(C)C (stereo not given) [2,6,10,15,19,23-hexamethyltetracosane] + CC(C)O
Details	mass density, 298.15 K [kg/m3]	mass density, 303.15 K [kg/m3]	mass density, 308.15 K [kg/m3]	speed of sound, 298.15 K [m/s]	speed of sound, 303.15 K [m/s]	speed of sound, 308.15 K [m/s]	viscosity, 298.15 K [mPa·s]	viscosity, 303.15 K [mPa·s]	viscosity, 308.15 K [mPa·s]
x2 = 0	805.122 ± 0.24	801.912 ± 0.24	798.709 ± 0.24	1381.9 ± 1.3	1364.1 ± 1.3	1346.5 ± 1.3	28.26 ± 0.31	22.09 ± 0.26	17.77 ± 0.21
x2 = 0.0621	804.504 ± 0.23	801.238 ± 0.23	797.982 ± 0.23	1377.4 ± 1.2	1359.1 ± 1.2	1341.4 ± 1.2	24.12 ± 0.28	18.75 ± 0.21	15.29 ± 0.16
x2 = 0.0949	804.196 ± 0.23	800.909 ± 0.23	797.625 ± 0.23	1374.9 ± 1.2	1356.8 ± 1.2	1338.9 ± 1.2	22.69 ± 0.25	17.69 ± 0.2	14.48 ± 0.16
x2 = 0.1438	803.771 ± 0.22	800.451 ± 0.22	797.133 ± 0.22	1371.4 ± 1.2	1353.3 ± 1.2	1335.5 ± 1.2	21.22 ± 0.23	16.63 ± 0.18	13.66 ± 0.14
x2 = 0.218	803.155 ± 0.21	799.796 ± 0.21	796.425 ± 0.21	1366 ± 1.2	1347.9 ± 1.2	1330 ± 1.2	19.65 ± 0.21	15.45 ± 0.17	12.74 ± 0.13
x2 = 0.2865	802.572 ± 0.2	799.185 ± 0.2	795.767 ± 0.2	1360.2 ± 1.2	1342.2 ± 1.1	1324.2 ± 1.1	18.5 ± 0.19	14.56 ± 0.16	12.03 ± 0.13
x2 = 0.3119	802.336 ± 0.2	798.955 ± 0.2	795.521 ± 0.2	1358.2 ± 1.1	1340 ± 1.1	1321.9 ± 1.1	18.11 ± 0.19	14.24 ± 0.15	11.76 ± 0.12
x2 = 0.4022	801.467 ± 0.19	798.03 ± 0.19	794.563 ± 0.19	1349.5 ± 1.1	1331.3 ± 1.1	1313.3 ± 1.1	16.68 ± 0.17	13.05 ± 0.14	10.84 ± 0.11
x2 = 0.5142	800.109 ± 0.18	796.619 ± 0.18	793.069 ± 0.18	1336.4 ± 1.1	1318.1 ± 1.1	1299.9 ± 1.1	14.34 ± 0.13	11.37 ± 0.12	9.424 ± 0.1
x2 = 0.5952	798.83 ± 0.17	795.275 ± 0.17	791.676 ± 0.18	1324.5 ± 1	1306.4 ± 1	1288.1 ± 1	11.77 ± 0.12	9.455 ± 0.095	7.904 ± 0.078

CCCCCCCCCCCCCCCC [hexadecane] + CC(C)O
Details	mass density, 298.15 K [kg/m3]	mass density, 303.15 K [kg/m3]	mass density, 308.15 K [kg/m3]	speed of sound, 298.15 K [m/s]	speed of sound, 303.15 K [m/s]	speed of sound, 308.15 K [m/s]	viscosity, 298.15 K [mPa·s]	viscosity, 303.15 K [mPa·s]	viscosity, 308.15 K [mPa·s]
x2 = 0	770.456 ± 0.24	766.981 ± 0.24	763.52 ± 0.24	1338.6 ± 1.3	1320 ± 1.3	1301.7 ± 1.3	3.041 ± 0.026	2.706 ± 0.024	2.409 ± 0.022
x2 = 0.0441	770.067 ± 0.23	766.622 ± 0.23	763.106 ± 0.24	1334.2 ± 1.2	1315.5 ± 1.2	1297.1 ± 1.2	2.867 ± 0.026	2.521 ± 0.023	2.231 ± 0.02
x2 = 0.1285	769.792 ± 0.23	766.198 ± 0.23	762.606 ± 0.23	1325.5 ± 1.2	1306.8 ± 1.2	1288.2 ± 1.2	2.654 ± 0.024	2.312 ± 0.021	2.034 ± 0.019
x2 = 0.1617	769.728 ± 0.22	766.093 ± 0.22	762.479 ± 0.22	1321.8 ± 1.2	1302.9 ± 1.2	1284.7 ± 1.2	2.601 ± 0.023	2.264 ± 0.021	1.989 ± 0.018
x2 = 0.2294	769.59 ± 0.21	765.938 ± 0.22	762.287 ± 0.22	1314.8 ± 1.2	1295.9 ± 1.2	1277.2 ± 1.2	2.531 ± 0.022	2.214 ± 0.02	1.944 ± 0.018
x2 = 0.2707	769.56 ± 0.21	765.896 ± 0.21	762.206 ± 0.21	1310.1 ± 1.1	1291.2 ± 1.1	1272.5 ± 1.1	2.504 ± 0.022	2.199 ± 0.02	1.928 ± 0.018
x2 = 0.332	769.565 ± 0.2	765.88 ± 0.21	762.156 ± 0.21	1303.1 ± 1.1	1284.1 ± 1.1	1265.6 ± 1.1	2.47 ± 0.021	2.176 ± 0.019	1.92 ± 0.018
x2 = 0.414	769.697 ± 0.2	765.976 ± 0.2	762.174 ± 0.2	1293.5 ± 1.1	1274.5 ± 1.1	1255.6 ± 1.1	2.43 ± 0.02	2.153 ± 0.019	1.904 ± 0.017
x2 = 0.5064	770.039 ± 0.19	766.23 ± 0.19	762.374 ± 0.19	1280.3 ± 1.1	1261.3 ± 1.1	1242.7 ± 1.1	2.36 ± 0.019	2.08 ± 0.018	1.843 ± 0.017
x2 = 0.6119	770.701 ± 0.18	766.793 ± 0.18	762.751 ± 0.18	1263.2 ± 1	1244.4 ± 1	1225.5 ± 1	2.242 ± 0.019	1.95 ± 0.017	1.719 ± 0.016
x2 = 0.7008	771.594 ± 0.17	767.564 ± 0.17	763.551 ± 0.17	1245.9 ± 0.98	1227.1 ± 1	1208.2 ± 1	2.123 ± 0.019	1.821 ± 0.017	1.599 ± 0.015
x2 = 0.762	772.47 ± 0.17	768.35 ± 0.17	764.298 ± 0.17	1231.6 ± 0.95	1212.9 ± 1	1194 ± 1	2.051 ± 0.019	1.723 ± 0.016	1.51 ± 0.014
x2 = 0.8419	774.082 ± 0.16	769.888 ± 0.16	765.761 ± 0.17	1208.4 ± 0.91	1189.9 ± 0.9	1171.2 ± 0.9	1.974 ± 0.02	1.628 ± 0.016	1.418 ± 0.013
x2 = 0.9188	776.284 ± 0.16	772.263 ± 0.16	768.061 ± 0.16	1180 ± 0.89	1161.6 ± 0.9	1143.6 ± 0.9	1.96 ± 0.02	1.608 ± 0.016	1.419 ± 0.013
x2 = 0.9498	777.915 ± 0.16	773.694 ± 0.16	769.382 ± 0.16	1166.2 ± 0.88	1148.3 ± 0.9	1130.3 ± 0.9	1.983 ± 0.019	1.647 ± 0.016	1.454 ± 0.013
